Results reported in the supplement of paper PMC10477900.
Counter-ions that a name gives are not always drawn.

Experiments:
HCT116 [1] = details: 72 h
Method: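 HCT116 control and MTA1-KO (CRISPR) HCT116 cells were seeded in 384-well plates (800 cells/well), treated 16 h later with 237 metabolism-related anticancer drugs at five doses (10 uM, 2 uM, 400 nM, 80 nM, 16 nM) for 72 h, two replicates; viability by CCK8. Values are % inhibition of viability relative to untreated cells, plus fitted IC50.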

HCT116 [2] = assay: viability inhibition vs untreated; higher = more cytotoxic; details: 72 h

SMILES	IC50 (HCT116 [1]; genotype: MTA1-KO) [µM]	IC50 (HCT116 [1]; genotype: control) [µM]	viability inhibition (HCT116 [2]; genotype: MTA1-KO, 16 nM) [%]	viability inhibition (HCT116 [2]; genotype: MTA1-KO, 80 nM) [%]	viability inhibition (HCT116 [2]; genotype: MTA1-KO, 400 nM) [%]	viability inhibition (HCT116 [2]; genotype: MTA1-KO, 2000 nM) [%]	viability inhibition (HCT116 [2]; genotype: MTA1-KO, 10000 nM) [%]	viability inhibition (HCT116 [2]; genotype: control, 16 nM) [%]	viability inhibition (HCT116 [2]; genotype: control, 80 nM) [%]	viability inhibition (HCT116 [2]; genotype: control, 400 nM) [%]	viability inhibition (HCT116 [2]; genotype: control, 2000 nM) [%]	viability inhibition (HCT116 [2]; genotype: control, 10000 nM) [%]
CC(C)(C)c1cc(O)ccc1O [TBHQ]	> 10	> 10	-1.6	-25.5	-23.4	-13.4	41.7	16.6	25.3	20.9	17.7	17
CNc1cc(-c2cccc(Cl)c2Cl)nc(N)n1 [TH287 hydrochloride]	1.6	1.9	18.9	15.8	23	65.5	94.7	4.08	10.5	1.79	63.9	87.3
Nc1nc(NC2CC2)cc(-c2cccc(Cl)c2Cl)n1 [TH588]	5.34	8.67	-0.076	6.2	2.73	14.7	80.3	-7.89	-5.19	-7.31	-7.46	74
C=CC[C@@H]1/C=C(\C)C[C@H](C)C[C@H](OC)[C@H]2O[C@@](O)(C(=O)C(=O)N3CCCC[C@H]3C(=O)O[C@H](/C(C)=C/[C@@H]3CC[C@@H](O)[C@H](OC)C3)[C@H](C)[C@@H](O)CC1=O)[C@H](C)C[C@@H]2OC [Tacrolimus]	> 10	> 10	-4.95	-4.18	0.155	-5.39	-7.24	5.2	13.7	18	7.23	7.94
CO[C@H]1C[C@@H]2CC[C@@H](C)[C@@](O)(O2)C(=O)C(=O)N2CCCC[C@H]2C(=O)O[C@H]([C@H](C)C[C@@H]2CC[C@@H](OC(=O)C(C)(CO)CO)[C@H](OC)C2)CC(=O)[C@H](C)/C=C(\C)[C@@H](O)[C@@H](OC)C(=O)[C@H](C)C[C@H](C)/C=C/C=C/C=C/1C [Temsirolimus]	< 0.016	> 10	56.3	49.2	48.4	46.7	60.5	12	10.7	8.05	-1.62	46.1
CC(=O)Nc1ccc(NC(=S)NC(=O)c2ccc(C(C)(C)C)cc2)cc1 [Tenovin-1]	0.456	0.931	-26.3	-21.8	12.8	59.2	62.3	-20.9	-18.3	3.67	73.1	90.4
CN(C)CCCCC(=O)Nc1ccc(NC(=S)NC(=O)c2ccc(C(C)(C)C)cc2)cc1 [Tenovin-6]	> 10	7.71	-14.1	-19.6	-23.8	-20.1	43.5	-8.39	1.22	8.03	5.54	67.5
CC(O)=C(C#N)C(=O)Nc1ccc(C(F)(F)F)cc1 [Teriflunomide]	> 10	> 10	-20.1	-19.6	-22.5	-31.4	-28.2	12.8	-1.7	-4.62	-5.29	10.1
O=c1oc2cc(O)ccc2s1 [Tioxolone]	> 10	> 10	-23.8	-21.4	-19	-28.2	-26.1	0.941	-1.9	-1.53	-13.6	-6.09
CC1(C)O[C@@H]2[C@@H](CO[C@@]3(COS(N)(=O)=O)OC(C)(C)O[C@@H]23)O1 [Topiramate]	> 10	> 10	-4.79	-13.2	-12.6	-13	-6.53	0.571	-0.663	3.41	3.1	12.4
CCC(=O)N1CCN(c2ccc(-n3c(=O)ccc4cnc5ccc(-c6cnc7ccccc7c6)cc5c43)cc2C(F)(F)F)CC1 [Torin 1]	0.324	1.8	2.4	8.65	52	70.7	80.9	-14.3	-3.02	4.25	56	62.3
Nc1ccc(-c2ccc3ncc4ccc(=O)n(-c5cccc(C(F)(F)F)c5)c4c3c2)cn1 [Torin 2]	0.134	0.289	-2.56	37.4	77.4	88.6	104	-9.67	18.6	72.5	87	108
CC(C)n1nc(-c2cc3cc(O)ccc3[nH]2)c2c(N)ncnc21 [Torkinib]	> 10	8.06	-28.4	-28.6	-28.2	-9.28	27.1	-1.58	-1.28	-0.73	8.7	65.9
N[C@@H]1C[C@H]1c1ccccc1 [Tranylcypromine (2-PCPA) hydrochloride]	> 10	> 10	-22.8	-17.9	-14.3	-18.2	-15.3	-0.159	-12.9	-1.62	-5.71	-28
CC1=C(/C=C/C(C)=C/C=C/C(C)=C/C(=O)O)C(C)(C)CCC1 [Tretinoin]	> 10	> 10	-24.6	-24.4	-23.5	-20.8	-24.5	-4.55	-1.65	-12.1	-9.98	-3.87
NS(=O)(=O)c1cc2c(cc1Cl)NC(C(Cl)Cl)NS2(=O)=O (centres undefined) [Trichlormethiazide]	> 10	> 10	-29.5	-30.5	-28.4	-24.3	-25.6	-19.9	-23.8	-25.7	-14.7	-2.52
C[C@]12CC[C@H]3[C@@H](CC[C@@]45O[C@@H]4C(O)=C(C#N)C[C@]35C)[C@@H]1CC[C@@H]2O [Trilostane]	> 10	> 10	-17	-18.6	-14.1	-30.8	-28.2	8.35	7.91	2.11	-10.9	-4.61
